From patent US20180264245A1, “Skin Care Applicator” (The Procter & Gamble Company, priority 2017, published 2018)
Where a SMILES comes first, the peptide text is derived from it.

Tests used:
[1] = Inositol in vitro skin penetration study (Franz Diffusion Cell assay); format: in vitro ADME, human; conditions: 0.5% inositol product, 24 hours; magnet with vibration vs. finger application or applicator incorporating a magnet; particularly in the epidermis; FIG. 6
Description: Skin penetration was measured using the Franz Diffusion Cell assay. Split-thickness (dermatomed) human cadaver skin was thawed under ambient conditions, cut into appropriately sized sections, and mounted in standard Franz-type diffusion cells (0.79 cm^2 surface area) maintained at about 37° C. The receptor compartments were filled with 5 mL phosphate buffered saline (PBS-pH 7.4) that included 1% polysorbate-20 and 0.02% sodium azide, and the skin was allowed to equilibrate for two hours. The cells were qualified upon ^3H20 flux through the mounted skin (150 μL of ^3H20 applied for five minutes and removed; receptor fluid was collected after one hour and analyzed using scintillation spectrometry). […] Where indicated, aliquots of the test products/formulations were spiked with the appropriate radioactive material (^3H-inositol, ^14C-niacinamide, ^14[…] or ^14C-retinyl propionate) with approximately 3 μCi per 300 mg product aliquot, mixed and assayed for total radioactivity in triplicate using Ultima Gold [Perkin-Elmer] liquid scintillation cocktail (LSC) and liquid scintillation counting. […] Active materials in receptor phase, filter paper wipes and solubilized skin samples were quantified using liquid scintillation. […]

[2] = Pal KTTKS in vivo skin penetration study (tape stripping); parameters: species or system human; key to significance of mean μg PalKTTKS/μg skin of Strip 6-10: “s” indicates significant difference vs. mean of passive (p < 0.1); conditions: for μg PalKTTKS/μg skin of Strip 6-10: cream; for Enhancement for strip 6-10: w Vibration vs. w/o Vibration
Description: An in vivo skin penetration study was conducted to establish the effect of using a skin care product of the present invention by applying a skin care composition comprising a peptide, in this case, Pal KTTKS, with an applicator comprising a magnetic array and a vibration source. The study used 10 active study sites (composition applied to target skin surface using an applicator containing a magnetic array and vibration source of the present invention) versus 10 control study sites (composition applied to target skin surface using an applicator with just a magnetic array). In this example, the level of Pal KTTKS present in the extract from each tape strip was measured using HPLC and the results normalized to the protein level measured on the tape strip.
This method provides a suitable means of measuring the amount of skin care active present in skin, and comparing active versus passive application of the skin care active. Two identical circular areas of 7.9 cm^2 were marked on the volar forearms of volunteers. A measured dose (approximately 9 mg) of the skin care formulation (ingredients shown in Table 1) was applied to the delineated areas using a screw actuated syringe. Application was carried out in each case using purpose made applicators having a metallic aluminium skin contact surface behind which was the magnetic array. The cream was spread evenly across the entire delineated region using the applicator in a sweeping motion with a fixed speed of approximately 3.5 cm/s to mimic normal finger application. The application period was 30 seconds during which time visual inspection was used to ensure even distribution and absorption of the formulation by skin. The application area was then left uncovered for a further 30 minutes to ensure complete absorption. The application area was then wiped thoroughly to remove any surface material, followed by carrying out tape stripping.
The Tape Stripping method can be carried out using commercial pre-cut 22.1 mm tape stripping adhesive discs (D-Squame, Cuderm Corporation or equivalent) with an adhesive area of 3.8 cm^2. A 22.1 mm diameter circular region was marked at the centre of the application area. A tape stripping adhesive disc was placed over the marked area and even pressure applied using a neoprene roller, rolled ten times over the surface. The adhesive disc was removed from the skin surface in a single pulling motion using manual tweezers. To ensure even removal of the stratum corneum, subsequent discs were removed in a north, south, east and west orientation. Each adhesive disc was non-destructively analysed for relative protein content using the SquameScan™ 850 instrument (Heiland Electronics Wetzlar Germany). The adhesive disc was then immediately placed into a glass vial containing extraction solvent in preparation for subsequent analysis. Solvent extractions are conducted on each tape strip using conventional extraction methods, which are well known to those of ordinary skill in the art, and measuring the amount of niacinamide present in the extract, for example, by high performance liquid chromatography (“HPLC”) and/or mass spectrometry.
The procedure was repeated for the remaining nine strips. An additional strip was obtained from outside the area of application of the skin care formulation to serve as a blank sample.

[3] = unit not given; cited from earlier work

SMILES: OC1C(O)[C@H](O)[C@@H](O)C(O)[C@H]1O (stereo in doubt) [inositol, cyclohexane-1,2,3,4,5,6-hexol]
- penetration into skin of inositol [1]: significant increase in penetration into skin

SMILES: CCCCCCCCCCCCCCCC(=O)N[C@@H](CCCCN)C(=O)N[C@H](C(=O)N[C@H](C(=O)N[C@@H](CCCCN)C(=O)N[C@@H](CO)C(=O)O)[C@@H](C)O)[C@@H](C)O [PalKTTKS, palimitoyl-lysine-threonine-threonine-lysine-serine] (HELM PEPTIDE1{[CCCCCCCCCCCCCCCC(=O)[*:2]].K.T.T.K.S}$$$$V2.0; C-terminus assumed)
- significance of mean μg PalKTTKS/μg skin of Strip 6-10 ([2]; Magnetic Micro array w Vibration, Mean, vs. mean of passive): s
- μg PalKTTKS/μg skin of Strip 6-10 ([2]; Magnetic Micro array w Vibration, Mean of 10 panelists): 0.02522 μg PalKTTKS/μg skin
- μg PalKTTKS/μg skin of Strip 6-10 ([2]; Magnetic Micro array w Vibration, Panelist1): 0.01152 μg PalKTTKS/μg skin
- μg PalKTTKS/μg skin of Strip 6-10 ([2]; Magnetic Micro array w Vibration, Panelist2): 0.02161 μg PalKTTKS/μg skin
- μg PalKTTKS/μg skin of Strip 6-10 ([2]; Magnetic Micro array w Vibration, Panelist3): 0.01304 μg PalKTTKS/μg skin
- μg PalKTTKS/μg skin of Strip 6-10 ([2]; Magnetic Micro array w Vibration, Panelist4): 0.0258 μg PalKTTKS/μg skin
- μg PalKTTKS/μg skin of Strip 6-10 ([2]; Magnetic Micro array w Vibration, Panelist5): 0.0568 μg PalKTTKS/μg skin
- μg PalKTTKS/μg skin of Strip 6-10 ([2]; Magnetic Micro array w Vibration, Panelist6): 0.04369 μg PalKTTKS/μg skin
- μg PalKTTKS/μg skin of Strip 6-10 ([2]; Magnetic Micro array w Vibration, Panelist7): 0.02184 μg PalKTTKS/μg skin
- μg PalKTTKS/μg skin of Strip 6-10 ([2]; Magnetic Micro array w Vibration, Panelist8): 0.02081 μg PalKTTKS/μg skin
- μg PalKTTKS/μg skin of Strip 6-10 ([2]; Magnetic Micro array w Vibration, Panelist9): 0.01648 μg PalKTTKS/μg skin
- μg PalKTTKS/μg skin of Strip 6-10 ([2]; Magnetic Micro array w Vibration, Panelist10): 0.02061 μg PalKTTKS/μg skin
- μg PalKTTKS/μg skin of Strip 6-10 ([2]; Magnetic Micro array w/o Vibration, Mean of 10 panelists): 0.02166 μg PalKTTKS/μg skin
- μg PalKTTKS/μg skin of Strip 6-10 ([2]; Magnetic Micro array w/o Vibration, Panelist1): 0.0107 μg PalKTTKS/μg skin
- μg PalKTTKS/μg skin of Strip 6-10 ([2]; Magnetic Micro array w/o Vibration, Panelist2): 0.01869 μg PalKTTKS/μg skin
- μg PalKTTKS/μg skin of Strip 6-10 ([2]; Magnetic Micro array w/o Vibration, Panelist3): 0.00663 μg PalKTTKS/μg skin
- μg PalKTTKS/μg skin of Strip 6-10 ([2]; Magnetic Micro array w/o Vibration, Panelist4): 0.01973 μg PalKTTKS/μg skin
- μg PalKTTKS/μg skin of Strip 6-10 ([2]; Magnetic Micro array w/o Vibration, Panelist5): 0.05444 μg PalKTTKS/μg skin
- μg PalKTTKS/μg skin of Strip 6-10 ([2]; Magnetic Micro array w/o Vibration, Panelist6): 0.03195 μg PalKTTKS/μg skin
- μg PalKTTKS/μg skin of Strip 6-10 ([2]; Magnetic Micro array w/o Vibration, Panelist7): 0.02902 μg PalKTTKS/μg skin
- μg PalKTTKS/μg skin of Strip 6-10 ([2]; Magnetic Micro array w/o Vibration, Panelist8): 0.01924 μg PalKTTKS/μg skin
- μg PalKTTKS/μg skin of Strip 6-10 ([2]; Magnetic Micro array w/o Vibration, Panelist9): 0.00638 μg PalKTTKS/μg skin
- μg PalKTTKS/μg skin of Strip 6-10 ([2]; Magnetic Micro array w/o Vibration, Panelist10): 0.01984 μg PalKTTKS/μg skin
- penetration of the active into skin ([2]; applicator combining magnetic array with vibration source vs. control applicator with just a magnetic array): penetration of the active is enhanced
- Enhancement for strip 6-10 ([2]; Mean): 1.337
- Enhancement for strip 6-10 ([2]; Panelist1): 1.077
- Enhancement for strip 6-10 ([2]; Panelist2): 1.156
- Enhancement for strip 6-10 ([2]; Panelist3): 1.966
- Enhancement for strip 6-10 ([2]; Panelist4): 1.307
- Enhancement for strip 6-10 ([2]; Panelist5): 1.043
- Enhancement for strip 6-10 ([2]; Panelist6): 1.367
- Enhancement for strip 6-10 ([2]; Panelist7): 0.7528
- Enhancement for strip 6-10 ([2]; Panelist8): 1.081
- Enhancement for strip 6-10 ([2]; Panelist9): 2.582
- Enhancement for strip 6-10 ([2]; Panelist10): 1.039
- diamagnetic susceptibility [3]: approximately −519
